# In patent EP4772500A1, “NOVEL ISOXAZOLE COMPOUND AS TM4SF5-SPECIFIC INHIBITOR AND USE THEREOF” (Seoul National University R&DB Foundation, priority 2023, dated 2025):
# Key:
# [1] = system: C57BL/6 mice on Methionine-Choline Deficient (MCD) diet; assay: MCD diet non-alcoholic steatohepatitis (NASH) mouse model; format: in vivo
# Excerpt: Wildtype (WT), Alb-TG^Tm4sf5-Flag, and Tm4sf5^-/- (Tm4sf5 gene-deficient) KO C57BL/6N mice were raised in a pathogen-free room animal facility where temperature and humidity were well controlled. For the experiment to establish the steatohepatitis NASH disease model, 22-week-old mice were used. For the induction of hepatic steatohepatitis through an MCD (TD.90262, Teklad) diet, 6-week-old male mice were randomly divided into normal chow diet (NCD, Purina, Cat # 38057) and MCD groups and allowed free access to the diet for 4 weeks (7 mice per group). When treating with drugs, intraperitoneal injection was performed at a concentration of 5 mg/kg twice a week. After the end of the experiment, liver tissues were obtained and analyzed through methods of H&E, immunohistochemistry tissue staining, Western blot, and qRT-PCR.
# Normal 22-week-old C57BL/6 mice were randomly divided into a normal chow diet (NCD) group and a Methionine-Choline Deficient (MCD) diet group, which is a non-alcoholic steatohepatitis (NASH) induction diet, with 3 to 6 mice per group, and were allowed free access to the diets for 4 weeks. Simultaneously, vehicle (DMSO) or ST-2-001 at a concentration of 5 mg/kg was treated twice a week per animal via intraperitoneal injection (IP). After 4 weeks, liver tissues were obtained, and Masson's Trichrome staining showing the accumulation of collagen I (degree of fibrosis) and immunohistochemistry using antibodies against the given factors were performed. Representative images were obtained by randomly scanning the stained liver tissue sections using a digital slide scanner (MoticEasyScan, Motic, British Columbia, Canada). Additionally, tissue extracts were obtained from a portion of the liver tissues to perform Western blotting or qRT-PCR for the given factors, thereby confirming the mRNA and protein expression levels and phosphorylation degrees of signaling factors related to the induction of NASH-fibrosis symptoms and the regulation of T or NK cell activity. Meanwhile, in addition to the animal models, it was intended to confirm whether the expressions of TM4SF5, laminin γ2, and AFP correlate with each other at the hepatocyte level and are regulated by the TM4SF5-specific inhibitor isoxazole compound.
# SNU449T7 cells = assay: Liver-orthotopic xenograft model of TM4SF5-expressing cell line; format: in vivo, BALB/c-Nude mice
# Description: The next day, the cells were detached by treating with a T/E (Trypsin/EDTA) solution and centrifuged at 150x g for 3 minutes to obtain a pellet. Thereafter, the supernatant was removed, leaving only the pellet. After mixing with matrigel matrix (CORNING) such that the final concentration of EGF was 50 ng/µl, the cell pellet was prepared by resuspension in the mixture of EGF and matrigel. Then, 5x10^5 cells/20 µl were directly injected once into the liver of 6-week-old male BALB/c-Nude mice. At this time, the animals were anesthetized by inhalation with […] isoflurane and injected. From one week after the cell injection, drug ST-5-002 was intraperitoneally injected at 5 mg/kg twice a week. After injecting the drug for a total of 6 times over 3 weeks, the animals were sacrificed at the 4th week of cell injection, and liver tissues were obtained and analyzed.
# (a-d) A liver-orthotopic xenograft model was established by directly injecting 5x10^5 SNU449T7 cells into the livers of 6-week-old male BALB/c-Nude mice (n=9), which are deficient in T and B cells but still capable of activating NK cell functions. Starting one week after the cell injection, the drug ST-5-002 was intraperitoneally injected at 5 mg/kg twice a week (a). After a total of 6 injections over 3 weeks, the animals were sacrificed at the 4th week of cell injection, and liver tissues were obtained and images of the livers were taken (b). Body weight was measured every week during the drug injections. Meanwhile, although cancer formation occurred in several places in the liver tissue, the cancer masses were […], and since it was practically difficult to measure the size or volume of small cancer masses due to time constraints for tissue specimen processing, the volume of the largest cancer mass was measured for each liver tissue. The tumor volumes calculated from n=7 liver tissues, excluding the maximum and minimum values, are shown (c). (d) For a portion of the liver tissues, the expression level, distribution, and localization of each factor, as well as the degree of damage to the liver cancer tissue, were confirmed through immunohistochemistry or H&E staining for the given protein factors.
# (a-b) As in FIG. 20, a liver-orthotopic xenograft model was established by directly injecting 5x10^5 SNU449T7 cells into the livers of 6-week-old male BALB/c-Nude mice (n=9), which are deficient in T and B cells but still capable of activating NK cell functions. Starting one week after the cell injection, the drug ST-5-002 was intraperitoneally injected at 5 mg/kg twice a week. (b-d) After the end of the experiment, for a portion of the obtained liver tissues, the expression level, distribution, and localization of SLAMF7, SLAMF6, NKG2D, PD-L1, and PD-1 factors, as well as the degree of liver cancer tissue, were confirmed through immunohistochemistry.
# [2] = MCD diet, liver tissue extracts (FIG. 8c)
# [3] = mouse xenograft experiment, liver tissue extracts, Western blotting (FIG. 13e)
Structure (SMILES),"NASH-fibrosis symptoms ([1]; MCD diet, 5 mg/kg IP twice a week, 4 weeks, tissue staining (FIG. 8a))","CPT1 (carnitine palmitoyltransferase 1) [1, 2]","expressions and levels of fibrosis-related factors, factors related to lipogenesis and steatosis, and cytokines/chemokines related to inflammation [1, 2]","α-Sma, Afp, and Pd-ll expression ([1]; MCD diet, liver tissue extracts, Western blotting (FIG. 8b))","mRNA levels for lipogenesis (Acc, Dgat2, Fasn) and activation of Kupffer cells (Trem2, Tim4, Clec4j) ([1]; MCD diet, liver tissues, qRT-PCR (FIG. 8d))","effect on the liver tissue or the expression of the stained factors ([1]; NCD (normal chow diet), 5 mg/kg IP twice a week (FIG. 8a))","expression of α-Sma, Afp, Pd-l1 ([1]; NCD, liver tissue extracts, Western blotting (FIG. 8b))","inhibitory effect on liver cancer formation (SNU449T7 cells; 5 mg/kg IP twice a week, 6 times, images (FIG. 20b))",distribution of cells highly expressing PD-L1 (SNU449T7 cells; immunohistochemistry (FIG. 22e)),infiltration of PD-1-expressing cells (SNU449T7 cells; immunohistochemistry (FIG. 22d)),"expressions of Ki67, AFP, F4/80, CCL2 and CCL20, and laminin γ2 (SNU449T7 cells; immunohistochemistry of liver tissue (FIG. 20d))","distribution of cells highly expressing SLAMF7 (SNU449T7 cells; immunohistochemistry, interface of small tumors (FIG. 22b))","degree of staining for SLAMF6 and NKG2D (SNU449T7 cells; immunohistochemistry, small cancerous areas (FIG. 22c))","tumor volume (SNU449T7 cells; largest cancer mass per liver, 28th day, vs vehicle (FIG. 20c))",SLAMF6 expression (SNU449T7 cells; [3]),TIGIT expression level (SNU449T7 cells; [3])
"COc1ccc(-c2cc(-c3ccc(NC(C)=O)cc3)no2)cc1 [ST-2-001, N-(4-(5-(4-methoxyphenyl)isoxazole-3-yl)phenyl)acetamide]",clearly inhibited,rather increased,suppressed,decreased,inhibited,had no effect,slightly decreased,–,–,–,–,–,–,–,–,–
"Cc1ccc(C(=O)Nc2ccc(-c3cc(-c4ccc(O)cc4)no3)cc2)cc1 [ST-5-002, N-(4-(3-(4-hydroxyphenyl)isoxazole-5-yl)phenyl)-4-methylbenzamide]",–,–,–,–,–,–,–,distinct,scattered and distributed at a low level inside the tumor,scattered and distributed without restriction,significantly lower,infiltrated and were distributed or localized inside the tumor,further increased inside the tumor area,significantly reduced,increased,lowered
